Assay results published in US9789096B2, “Methods and compositions for selective and targeted cancer therapy” (Board of Regents of the University of Texas System, priority 2013, dated 2017).
Like-named read-outs stand apart in the source and are kept apart here.

Key:
Type in all cases: cell-based, human
HBEC30KT = assay: Cell viability (ATP, Cell Titer Glo, 4 days), HBEC30KT; settings: Homo sapiens
Procedure: (§1) FIG. 6A. […] Cell viability is plotted vs. compound concentration. Compound was added to cells plated at 15% confluence in 96-well plates in RPMI-1640 media supplemented with 5% Fetal Bovine Serum and 2 mM L-Glutamine. After 4 days of incubation, ATP levels were measured using Cell Titer Glo (Promega). Data are presented as the average of 2 replicates ±SEM.
(§2) Selectivity may be measured by the half maximal inhibitory concentration (IC50), which, as used herein, is a measure of the effectiveness of a compound in killing cells. This quantitative measure indicates how much of a particular compound is needed to kill a particular cell population by half (e.g., as indicated by the amount of ATP). […] The IC50 can be determined by constructing a dose-response curve. The lower the IC50, the higher the potency, and the greater the difference between IC50 values for different cell lines (e.g., sensitive lines vs. insensitive lines, and sensitive lines vs. normal lines) the greater the selectivity. […]

H1819 = assay: Cell viability dose-response, H1819; settings: Homo sapiens
In short: (§3)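 Viability read as total ATP (Cell Titer Glo) following 4 days' compound exposure, with IC50 derived from dose-response curves. Duplicate 12-point series, top concentration 50 micromolar with 3-fold steps, on cells seeded at 15% confluence in RPMI-1640, 5% FBS, 2 mM L-glutamine.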

H2009 = assay: Cell viability dose-response, H2009; settings: Homo sapiens, NCI-H2009; Tables 3 and 4; read-out: IC50 (uM) vs indicated non-small cell lung cancer cell line H2009
In short: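 Steps: seed cells to 15% confluence in RPMI-1640 supplemented with 5% fetal bovine serum and 2 mM glutamine; add compound across a concentration range; incubate 4 days; measure total ATP with CellTiter-Glo. IC50 is derived from the curve.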

H2073 = assay: Cell viability dose-response, H2073; settings: Homo sapiens, NCI-H2073, Tables 3 and 4; read-out: IC50 (uM) vs indicated non-small cell lung cancer cell line H2073
Procedure: as §1, §2
With this information, we synthesized and tested a series of small molecules derived in conception from the oxalamide and chromone scaffold including N-acyl ureas, as shown in Tables 6-8. Each compound was tested in a 12-point dose-response study starting at 50 micromolar and decreasing in 3-fold increments to sub-nanomolar concentrations, in duplicate. Additionally, one or more additional cell line was tested in the same way.

H2122 = assay: Cell viability dose-response, H2122; settings: Homo sapiens
In short: as §3

[1] = Tables 3 and 4, read-out: HBEC30KT IC50
[2] = NCI-H1819, Tables 3 and 4, read-out: IC50 (uM) vs indicated non-small cell lung cancer cell line H1819
[3] = NCI-H2122, Tables 3 and 4, read-out: IC50 (uM) vs indicated non-small cell lung cancer cell line H2122
[4] = 12-point dose-response starting at 50 micromolar, 3-fold increments, in duplicate, read-out: toxicity data, HBEC30KT
[5] = NCI-H1819, 12-point dose-response starting at 50 micromolar, 3-fold increments, in duplicate, read-out: toxicity data, H1819
[6] = NCI-H2122, 12-point dose-response starting at 50 micromolar, 3-fold increments, in duplicate, read-out: toxicity data, H2122

SMILES	IC50 (HBEC30KT; [1]) [µM]	IC50 (H1819; [2]) [µM]	IC50 (H2009) [µM]	IC50 (H2073) [µM]	IC50 (H2122; [3]) [µM]	IC50 (HBEC30KT; [4]) [µM]	IC50 (H1819; [5]) [µM]	IC50 (H2122; [6]) [µM]
COc1ccc2nc(NC(=O)CCc3ccccc3)sc2c1 [SW202751]	376	995						
COc1ccc2nc(NC(=O)c3ccc([N+](=O)[O-])o3)sc2c1 [SW202753]	20	18.2	13.4	6.25	4.36			
O=S(=O)(Nc1nc2ccccc2s1)c1ccc(C(F)(F)F)cc1 [SW202754]	198	30.2	32.7	24.8	35.4			
Cc1cccc(C(=O)Nc2nc3ccccc3s2)c1 [SW202755]	106	47.8	53.9	25.1	0.734			
CCOC(=O)c1c(NC(=O)c2ccccc2)sc2c1CCCC2 [SW202858-1]	48.8		38.6		2.69			
COc1ccccc1CCNC(=O)C(=O)Nc1ccc(Cl)cc1 [SW207004-1]						49.5	≥ 49.5	≥ 49.5
O=C(NCCc1ccc(Br)cc1)C(=O)Nc1ccc(Cl)cc1 [SW207005-1]						49.5	≥ 49.5	≥ 49.5
Cc1cccc(CCNC(=O)C(=O)Nc2ccc(Cl)cc2)c1 [SW207006-1]						49.5	≥ 49.5	≥ 49.5
COc1ccc(CCNC(=O)C(=O)Nc2ccc(Cl)cc2)cc1OC [SW207007-1]						49.5	≥ 49.5	≥ 49.5
O=C(NCCc1ccc(Cl)cc1)C(=O)Nc1ccc(Cl)cc1 [SW207008-1]						49.5	≥ 49.5	≥ 49.5
COc1ccc(CCNC(=O)C(=O)Nc2ccccc2Br)cc1 [SW207009-1]						49.5	≥ 49.5	≥ 49.5
COc1ccc(CCNC(=O)C(=O)Nc2ccc(OC(F)(F)F)c([N+](=O)[O-])c2)cc1 [SW207010-1]						49.5	≥ 49.5	0.331
COc1ccc(CCNC(=O)C(=O)Nc2cc(Cl)ccc2OC)cc1 [SW207011-1]						49.5	≥ 49.5	≥ 49.5
COc1ccc(CCNC(=O)C(=O)Nc2cc(C(F)(F)F)c(Br)c(C(F)(F)F)c2)cc1 [SW207012-1]						18	≥ 49.5	11.8
COc1ccc(CCNC(=O)C(=O)Nc2ccc(Cl)cc2C(F)(F)F)cc1 [SW207013-1]						49.5	≥ 49.5	≥ 49.5
COc1ccc(CCNC(=O)C(=O)Nc2ccc(C)c(Br)c2)cc1 [SW207014-1]						49.5	≥ 49.5	0.89
COc1ccc(CCNC(=O)C(=O)Nc2ccc(C(F)(F)F)c(Br)c2)cc1 [SW207015-1]						44.1	≥ 49.5	0.456
CCOc1cccc(NC(=O)C(=O)NCCc2ccc(OC)cc2)c1 [SW207016-1]						49.5	≥ 49.5	23.8
COc1ccc(CCNC(=O)C(=O)Nc2ccc(C#N)cc2)cc1 [SW207017-1]						49.5	≥ 49.5	0.712
COc1ccc(CCNC(=O)C(=O)NCc2ccc(OC)cc2)cc1 [SW207018-1]						49.5	≥ 49.5	≥ 49.5
COc1ccc(CNC(=O)C(=O)NCc2ccc(OC)cc2)cc1 [SW207019-1]						49.5	≥ 49.5	≥ 49.5
COc1ccc(CCNC(=O)C(=O)Nc2ccc(C)c(Cl)c2)cc1 [SW207020-1]						49.5	≥ 49.5	0.602
COc1ccc(CCNC(=O)C(=O)Nc2cccc(C#N)c2)cc1 [SW207021-1]						49.5	≥ 49.5	0.407
